Bounds are passed on as bounds.

The test system of assay [1] is third stage larvae of Haemonchus contortus. The assay is described as follows: Haemonchus contortus L3 (HcL3) Assay. The format is cell-based. Particulars: 96 h, read-out: HcL3 Minimum Effective Dose (MED).
The test system of assay [2] is 4th stage larvae (L4) of Dirofilaria immitis. The assay is described as follows: Dirofilaria immitis, L4 Stage (DiL4) In Vitro Assay. Particulars: Dirofilaria immitis, 72 h, read-out: DiL4 Minimum Effective Dose (MED), approximately 72 hours incubation; L4 larvae assessed for survival or paralysis. The format is cell-based.

In the case of `CC(C)C[C@H]1C(=O)O[C@H](Cc2ccc(C3(n4cc(OC(C)C)cn4)CCC3)cc2)C(=O)N(C)[C@@H](CC(C)C)C(=O)O[C@H](C)C(=O)N(C)[C@@H](CC(C)C)C(=O)O[C@H](Cc2ccc(C3(n4cc(OC(C)C)cn4)CCC3)cc2)C(=O)N(C)[C@@H](CC(C)C)C(=O)O[C@H](C)C(=O)N1C` [Example 1c-3, (3S,6R,9S,12R,15S,18R,21S,24R)-3,9,15,21-tetraisobutyl-6,18-bis(4-(1-(4-isopropoxy-1H-pyrazol-1-yl)cyclobutyl)benzyl)-4,10,12,16,22,24-hexamethyl-1,7,13,19-tetraoxa-4,10,16,22-tetraazacyclotetracosan-2,5,8,11,14,17,20,23-octaone], the values for the minimal effective concentration in assay [1] and in assay [2] were not above 1 µM and not above 0.0001 µM, respectively.
The corresponding values for `CC(C)C[C@H]1C(=O)O[C@H](Cc2ccc(C(C3CC3)n3cccn3)cc2)C(=O)N(C)[C@@H](CC(C)C)C(=O)O[C@H](C)C(=O)N(C)[C@@H](CC(C)C)C(=O)O[C@H](Cc2ccc(C(C3CC3)n3cccn3)cc2)C(=O)N(C)[C@@H](CC(C)C)C(=O)O[C@H](C)C(=O)N1C` (stereo partly drawn) [Example 1c-4, (3S,6R,9S,12R,15S,18R,21S,24R)-6,18-bis(4-(cyclopropyl(1H-pyrazol-1-yl)methyl)benzyl)-3,9,15,21-tetraisobutyl-4,10,12,16,22,24-hexamethyl-1,7,13,19-tetraoxa-4,10,16,22-tetraazacyclotetracosan-2,5,8,11,14,17,20,23-octaone] are not above 1 µM and 0.0001 to 0.001 µM.
Turning to `CC(C)C[C@H]1C(=O)O[C@H](Cc2ccc(C(C)(C)n3cccn3)cc2)C(=O)N(C)[C@@H](CC(C)C)C(=O)O[C@H](C)C(=O)N(C)[C@@H](CC(C)C)C(=O)O[C@H](Cc2ccc(C(C)(C)n3cccn3)cc2)C(=O)N(C)[C@@H](CC(C)C)C(=O)O[C@H](C)C(=O)N1C` [Example 1c-6, (3S,6R,9S,12R,15S,18R,21S,24R)-6,18-bis(4-(2-(1H-pyrazol-1-yl)propan-2-yl)benzyl)-3,9,15,21-tetraisobutyl-4,10,12,16,22,24-hexamethyl-1,7,13,19-tetraoxa-4,10,16,22-tetraazacyclotetracosan-2,5,8,11,14,17,20,23-octaone], the minimal effective concentration in assay [1] is not above 1 µM; in assay [2], not above 0.0001 µM.
`CC(C)C[C@H]1C(=O)O[C@H](Cc2ccc(C(C)(C)n3cc(OC(C)C)cn3)cc2)C(=O)N(C)[C@@H](CC(C)C)C(=O)O[C@H](C)C(=O)N(C)[C@@H](CC(C)C)C(=O)O[C@H](Cc2ccc(C(C)(C)n3cc(OC(C)C)cn3)cc2)C(=O)N(C)[C@@H](CC(C)C)C(=O)O[C@H](C)C(=O)N1C` [Example 1c-10, (3S,6R,9S,12R,15S,18R,21S,24R)-3,9,15,21-tetraisobutyl-6,18-bis(4-(2-(4-isopropoxy-1H-pyrazol-1-yl)propan-2-yl)benzyl)-4,10,12,16,22,24-hexamethyl-1,7,13,19-tetraoxa-4,10,16,22-tetraazacyclotetracosan-2,5,8,11,14,17,20,23-octaone]: the values for the minimal effective concentration in assay [1] and in assay [2] were not above 1 µM and not above 0.0001 µM, respectively.
As for `CC(C)C[C@H]1C(=O)O[C@H](Cc2ccc(Cn3cccn3)cc2)C(=O)N(C)[C@@H](CC(C)C)C(=O)O[C@H](C)C(=O)N(C)[C@@H](CC(C)C)C(=O)O[C@H](Cc2ccccc2)C(=O)N(C)[C@@H](CC(C)C)C(=O)O[C@H](C)C(=O)N1C` [Example 2-1, (3S,6R,9S,12R,15S,18R,21S,24R)-6-benzyl-3,9,15,21-tetraisobutyl-4,10,12,16,22,24-hexamethyl-18-[[4-(pyrazol-1-ylmethyl)phenyl]methyl]-1,7,13,19-tetraoxa-4,10,16,22-tetrazacyclotetracosane-2,5,8,11,14,17,20,23-octaone], the minimal effective concentration lay in the range of 1 to 10 µM in assay [1] and 0.0001 to 0.001 µM in assay [2].
The corresponding values for `CC(C)C[C@H]1C(=O)O[C@H](Cc2ccc(Cn3ccnc3Br)cc2)C(=O)N(C)[C@@H](CC(C)C)C(=O)O[C@H](C)C(=O)N(C)[C@@H](CC(C)C)C(=O)O[C@H](Cc2ccc(Cn3ccnc3Br)cc2)C(=O)N(C)[C@@H](CC(C)C)C(=O)O[C@H](C)C(=O)N1C` [Example 6-3, (3S,6R,9S,12R,15S,18R,21S,24R)-6,18-bis[[4-[(2-bromoimidazol-1-yl)methyl]phenyl]methyl]-3,9,15,21-tetraisobutyl-4,10,12,16,22,24-hexamethyl-1,7,13,19-tetraoxa-4,10,16,22-tetrazacyclotetracosane-2,5,8,11,14,17,20,23-octaone] are 1 to 10 µM and not above 0.0001 µM.
On to `CC(C)C[C@H]1C(=O)O[C@H](Cc2ccc(Cn3ccnc3Cl)cc2)C(=O)N(C)[C@@H](CC(C)C)C(=O)O[C@H](C)C(=O)N(C)[C@@H](CC(C)C)C(=O)O[C@H](Cc2ccc(Cn3ccnc3Cl)cc2)C(=O)N(C)[C@@H](CC(C)C)C(=O)O[C@H](C)C(=O)N1C` [Example 6-9, (3S,6R,9S,12R,15S,18R,21S,24R)-6,18-bis(4-((2-chloro-1H-imidazol-1-yl)methyl)benzyl)-3,9,15,21-tetraisobutyl-4,10,12,16,22,24-hexamethyl-1,7,13,19-tetraoxa-4,10,16,22-tetraazacyclotetracosan-2,5,8,11,14,17,20,23-octaone], for which the minimal effective concentration in assay [1] was 1 to 10 µM; in assay [2] it was not above 0.0001 µM.
The corresponding values for `CC(C)C[C@H]1C(=O)O[C@H](Cc2ccc(Cn3ccnc3Cl)cc2)C(=O)N(C)[C@@H](CC(C)C)C(=O)O[C@H](C)C(=O)N(C)[C@@H](CC(C)C)C(=O)O[C@H](Cc2ccccc2)C(=O)N(C)[C@@H](CC(C)C)C(=O)O[C@H](C)C(=O)N1C` [Example 8-9, (3S,6R,9S,12R,15S,18R,21S,24R)-6-benzyl-18-(4-((2-chloro-1H-imidazol-1-yl)methyl)benzyl)-3,9,15,21-tetraisobutyl-4,10,12,16,22,24-hexamethyl-1,7,13,19-tetraoxa-4,10,16,22-tetraazacyclotetracosan-2,5,8,11,14,17,20,23-octaone] are 1 to 10 µM and 0.0001 to 0.001 µM.
The corresponding values for `CC(C)C[C@H]1C(=O)O[C@H](Cc2ccc(Cn3c(C#N)ccc3C#N)cc2)C(=O)N(C)[C@@H](CC(C)C)C(=O)O[C@H](C)C(=O)N(C)[C@@H](CC(C)C)C(=O)O[C@H](Cc2ccc(Cn3c(C#N)ccc3C#N)cc2)C(=O)N(C)[C@@H](CC(C)C)C(=O)O[C@H](C)C(=O)N1C` [Example 9-12, 1,1′-(((((2R,5S,8R,11S,14R,17S,20R,23S)-5,11,17,23-tetraisobutyl-4,8,10,16,20,22-hexamethyl-3,6,9,12,15,18,21,24-octaoxo-1,7,13,19-tetraoxa-4,10,16,22-tetraazacyclotetracosane-2,14-diyl)bis(methylene))bis(4,1-phenylene))bis(methylene))bis(1H-pyrrole-2,5-dicarbonitrile)] are not above 1 µM and not above 0.0001 µM.
The corresponding values for `CC(C)C[C@H]1C(=O)O[C@H](Cc2ccc(Cn3cccc3C#N)cc2)C(=O)N(C)[C@@H](CC(C)C)C(=O)O[C@H](C)C(=O)N(C)[C@@H](CC(C)C)C(=O)O[C@H](Cc2ccc(Cn3cccc3C#N)cc2)C(=O)N(C)[C@@H](CC(C)C)C(=O)O[C@H](C)C(=O)N1C` [Example 9-16, 1-[[4-[[(2R,5S,8R,11S,14R,17S,20R,23S)-14-[[4-[(2-cyanopyrrol-1-yl)methyl]phenyl]methyl]-5,11,17,23-tetraisobutyl-4,8,10,16,20,22-hexamethyl-3,6,9,12,15,18,21,24-octaoxo-1,7,13,19-tetraoxa-4,10,16,22-tetrazacyclotetracos-2-yl]methyl]phenyl]methyl]pyrrole-2-carbonitrile] are not above 1 µM and not above 0.0001 µM.
For the compound `CC(C)C[C@H]1C(=O)O[C@H](Cc2ccc(Cn3cccc3C(N)=O)cc2)C(=O)N(C)[C@@H](CC(C)C)C(=O)O[C@H](C)C(=O)N(C)[C@@H](CC(C)C)C(=O)O[C@H](Cc2ccc(Cn3cccc3C(N)=O)cc2)C(=O)N(C)[C@@H](CC(C)C)C(=O)O[C@H](C)C(=O)N1C` [Example 9-32, 1-[[4-[[(2R,5S,8R,11 S,14R,17S,20R,23S)-14-[[4-[(2-carbamoylpyrrol-1-yl)methyl]phenyl]methyl]-5,11,17,23-tetraisobutyl-4,8,10,16,20,22-hexamethyl-3,6,9,12,15,18,21,24-octaoxo-1,7,13,19-tetraoxa-4,10,16,22-tetrazacyclotetracos-2-yl]methyl]phenyl]methyl]pyrrole-2-carboxamide], the minimal effective concentration in assay [1] is not above 1 µM; in assay [2], 0.0001 to 0.001 µM.
As to `CCc1ncnn1Cc1ccc(C[C@H]2OC(=O)[C@H](CC(C)C)N(C)C(=O)[C@@H](C)OC(=O)[C@H](CC(C)C)N(C)C(=O)[C@@H](Cc3ccc(Cn4ncnc4CC)cc3)OC(=O)[C@H](CC(C)C)N(C)C(=O)[C@@H](C)OC(=O)[C@H](CC(C)C)N(C)C2=O)cc1` [Example 9-50, (3S,6R,9S,12R,15S,18R,21S,24R)-6,18-bis(4-((5-ethyl-1H-1,2,4-triazol-1-yl)methyl)benzyl)-3,9,15,21-tetraisobutyl-4,10,12,16,22,24-hexamethyl-1,7,13,19-tetraoxa-4,10,16,22-tetraazacyclotetracosan-2,5,8,11,14,17,20,23-octaone], the minimal effective concentration lay within 1 to 10 µM in assay [1] and 0.001 to 0.01 µM in assay [2].
Regarding `CC(C)C[C@H]1C(=O)O[C@H](Cc2ccc(Cn3ncnc3C3CCC3)cc2)C(=O)N(C)[C@@H](CC(C)C)C(=O)O[C@H](C)C(=O)N(C)[C@@H](CC(C)C)C(=O)O[C@H](Cc2ccc(Cn3ncnc3C3CCC3)cc2)C(=O)N(C)[C@@H](CC(C)C)C(=O)O[C@H](C)C(=O)N1C` [Example 9-54, (3S,6R,9S,12R,15S,18R,21S,24R)-6,18-bis(4-((5-cyclobutyl-1H-1,2,4-triazol-1-yl)methyl)benzyl)-3,9,15,21-tetraisobutyl-4,10,12,16,22,24-hexamethyl-1,7,13,19-tetraoxa-4,10,16,22-tetraazacyclotetracosan-2,5,8,11,14,17,20,23-octaone], the figures for the minimal effective concentration in assay [1] and in assay [2] were 1 to 10 µM and 0.001 to 0.01 µM, respectively.

These data come from patent US11331369B2, “Endoparasitic depsipeptides” (Zoetis Services LLC, priority 2017, dated 2022).
